IC50 data for 4 compounds are collected here from patent EP0889878B1 (Merck Frosst Canada & Co., priority 1996, dated 1997).

pIC50: −log10 of the molar value.

One experiment concerns the target T1, COX-1 (Homo sapiens, UniProt P23219).
T1 construct: human U-937 cells (which specifically express COX-1); endogenous in cells; host or cells: human U-937 cells
The experiment is described as follows: Whole cell cyclooxygenase assay in U-937 cells (COX-1, inhibition of PGE2 production). The experiment is classed as cell-based. The procedure: Compounds are tested as inhibitors of cyclooxygenase activity in whole cell cyclooxygenase assays. Both of these assays measure prostaglandin E2 synthesis in response to arachidonic acid, using a radioimmunoassay. Cells used for these assays are human osteosarcoma 143 cells (which specifically express COX-2) and human U-937 cells (which specifically express COX-1). In these assays, 100% activity is defined as the difference between prostaglandin E2 synthesis in the absence and presence of arachidonate.
For cyclooxygenase assays, osteosarcoma cells are cultured in 1 mL of media in 24-well multidishes (Nunclon) until confluent (1-2 x 10^5 cells/well). U-937 cells are grown in spinner flasks and resuspended to a final density of 1.5 x 10^6 cells/mL in 24-well multidishes (Nunclon). Following washing and resuspension of osteosarcoma and U-937 cells in 1 mL of HBSS, 1 µL of a DMSO solution of test compound or DMSO vehicle is added, and samples gently mixed. All assays are performed in triplicate. Samples are then incubated for 5 or 15 minutes at 37C, prior to the addition of arachidonic acid. Arachidonic acid (peroxide-free, Cayman Chemical) is prepared as a 10 mM stock solution in ethanol and further diluted 10-fold in HBSS. An aliquot of 10 µL of this diluted solution is added to the cells to give a final arachidonic acid concentration of 10 µM. Control samples are incubated with ethanol vehicle instead of arachidonic acid. Samples are again gently mixed and incubated for a further 10 min. at 37C. For osteosarcoma cells, reactions are then stopped by the addition of 100 µL of 1N HCl, with mixing and by the rapid removal of the solution from cell monolayers. For U-937 cells, reactions are stopped by the addition of 100 µL of IN HCl, with mixing. Samples are then neutralized by the addition of 100 µL of 1N NaOH and PGE2 levels measured by radioimmunoassay.
In the assay, inhibition is determined by measuring the amount of prostaglandin E2 (PGE2) synthesized in the presence of arachidonic acid, COX-1 or COX-2 and a putative inhibitor.
The results for inhibition of PGE2 production may be seen in Table 7.

The next experiment has as its target T2, COX-2 (Homo sapiens, UniProt P35354).
T2 construct: expressed in transfected cells; host or cells: CHO cells stably transfected with pCDNAIII (CHO[hCOX-2])
T2 sequence (P35354 18-604): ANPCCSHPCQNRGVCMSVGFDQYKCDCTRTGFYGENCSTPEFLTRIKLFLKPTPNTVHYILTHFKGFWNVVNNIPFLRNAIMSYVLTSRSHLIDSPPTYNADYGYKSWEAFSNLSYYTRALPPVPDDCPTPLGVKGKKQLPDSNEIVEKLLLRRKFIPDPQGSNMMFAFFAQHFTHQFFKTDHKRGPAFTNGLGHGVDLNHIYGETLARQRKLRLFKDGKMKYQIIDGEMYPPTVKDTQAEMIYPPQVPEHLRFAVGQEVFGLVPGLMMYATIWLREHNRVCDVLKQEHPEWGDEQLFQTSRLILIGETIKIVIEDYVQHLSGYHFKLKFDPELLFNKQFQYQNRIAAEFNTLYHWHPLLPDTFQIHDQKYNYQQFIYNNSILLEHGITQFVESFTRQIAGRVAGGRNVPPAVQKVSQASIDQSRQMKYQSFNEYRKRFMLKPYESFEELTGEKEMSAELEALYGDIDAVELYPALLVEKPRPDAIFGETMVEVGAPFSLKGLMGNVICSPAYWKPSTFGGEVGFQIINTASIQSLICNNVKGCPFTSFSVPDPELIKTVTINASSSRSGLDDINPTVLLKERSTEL
Put plainly: Whole cell assay for COX-2 using CHO transfected cell lines (inhibition of PGE2 production). The class given is cell-based. The method, then: Chinese hamster ovary (CHO) cell lines which have been stably transfected with an eukaryotic expression vector pCDNAIII containing either the human COX-1 or COX-2 cDNA's are used for the assay. These cell lines are referred to as CHO [hCOX-1] and CHO [hCOX-2], respectively. For cyclooxygenase assays, CHO[hCOX-1] cells from suspension cultures and CHO[hCOX-2] cells prepared by trypsinization of adherent cultures are harvested by centrifugation (300 x g, 10 min) and washed once in HBSS containing 15 mM HEPES, pH 7.4, and resuspended in HBSS, 15 mM HEPES, pH 7.4, at a cell concentration of 1.5 x 10^6 cells/ml. […] Cells are then challenged in the presence or absence of drug with the AA/HBSS solution to yield a final concentration of 0.5 µM AA in the CHO[hCOX-1] assay and a final concentration of 10 µM AA in the CHO[hCOX-2] assay. […] Cyclooxygenase activity in the absence of test compounds is determined as the difference in PGE2 levels of cells challenged with arachidonic acid versus the PGE2 levels in cells mock-challenged with ethanol vehicle. Inhibition of PGE2 synthesis by test compounds is calculated as a percentage of the activity in the presence of drug versus the activity in the positive control samples.
In the assay, inhibition is determined by measuring the amount of prostaglandin E2 (PGE2) synthesized in the presence of arachidonic acid, COX-1 or COX-2 and a putative inhibitor. […]

Broadly, the pIC50 is the IC50 on a negative log10 scale, so that one unit is a factor of ten.

T1 sequence (P23219 24-599): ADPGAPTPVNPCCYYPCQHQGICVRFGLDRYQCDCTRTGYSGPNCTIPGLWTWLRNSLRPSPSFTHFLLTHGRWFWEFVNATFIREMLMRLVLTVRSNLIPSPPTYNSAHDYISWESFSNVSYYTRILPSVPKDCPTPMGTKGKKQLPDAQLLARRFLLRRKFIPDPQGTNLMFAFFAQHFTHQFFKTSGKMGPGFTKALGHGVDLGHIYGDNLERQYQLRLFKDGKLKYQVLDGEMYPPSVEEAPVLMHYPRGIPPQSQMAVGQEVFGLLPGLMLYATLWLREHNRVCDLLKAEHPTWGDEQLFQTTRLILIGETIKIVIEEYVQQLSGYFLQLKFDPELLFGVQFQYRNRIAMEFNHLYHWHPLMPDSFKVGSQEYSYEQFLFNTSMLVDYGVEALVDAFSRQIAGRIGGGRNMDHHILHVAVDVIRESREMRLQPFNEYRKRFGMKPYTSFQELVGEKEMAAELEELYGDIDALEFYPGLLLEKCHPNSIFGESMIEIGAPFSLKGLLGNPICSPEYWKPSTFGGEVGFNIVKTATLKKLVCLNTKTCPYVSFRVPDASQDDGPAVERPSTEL

Turning to `CC1(c2ccsc2)C(=O)C(c2ccccc2)=C1c1ccc(S(C)(=O)=O)cc1` (stereo not drawn) [Example 6, 4-Methyl-3-(4-methylsulfonylphenyl)-2-phenyl-4-(3-thienyl)-2-cyclobuten-1-one], the pIC50 at COX-1 was 5.70; against COX-2, 7.60.

Regarding `CC1(C)C(=O)C(c2ccc(S(C)(=O)=O)cc2)=C1c1ccccc1` [Example 30, 4,4-dimethyl-2-(4-methylsulfonylphenyl)-3-phenyl-2-cyclobuten-1-one], the pIC50 against COX-1 was 5.96.

As for `C=C1CC(c2ccc(S(C)(=O)=O)cc2)=C1c1ccccc1` [Example 39, 3-Methylene-1-(4-methylsulfonylphenyl)-2-phenyl-1-cyclobutene], the pIC50 on COX-1 was 6.00.

For the compound `C/C(CO)=C1\CC(c2ccc(S(C)(=O)=O)cc2)=C1c1ccccc1` [Example 42], the pIC50 was 5.82 at COX-1 and 7.66 at COX-2.
